How the values were obtained:
E. coli chromosomal DNA [1] = assay: Influence of EMA plus visible light on isolated E. coli nucleic acid in vitro (agarose gel electrophoresis), chromosomal DNA band; format: biochemical; details: visible light 500 W halogen bulb 20 min
Procedure: (§1) b 1 ml living bacterial suspension of 1.0×10^6 CFU/ml of E. coli/DH5α strain was subjected to centrifugation under a cool condition. After removal of the supernatant, the resulting pellet was added with 0.5 ml of 10 mM Tris-HCl buffer solution (pH 8.0) and further added with 10 μl of 1250U/ml protease K solution and 200 μl of 10% SDS solution, followed by overnight bacteriolysis at 50° C.
(§2) Subsequently, each of the treated solution was divided into two equal volumes and dispensed into two 2 ml micro tubes, respectively. Each of them was added with 0.5 ml of saturated phenol solution, then gently mixed for 15 minutes, and then added with 0.5 ml of chloroform, followed by gently mixing for 5 minutes. After that, the mixture was centrifuged at 6,000×g at 4° C. for 10 minutes. An aqueous phase, an upper layer, was transferred into an another 2 ml microtube and then added with 70 μl of 3M sodium acetate (pH 5.2) and 1.21 ml of 99.5% cold ethanol, followed by gentle mixing. […] The concentration of the purified nucleic acid solution was determined based on the absorbance at UV260 nm (50 μg/ml of the nucleic acid was defined as OD=1, cell length=1 cm:OD260).
(§3) The nucleic acid solution thus prepared was adjusted to 175 ng/μl with sterile water and 4 μl aliquot of the nucleic acid solution was then added to each of microtubes. […] The resulting image was recorded on the Polaroid film 667. […]

[2] = system: rRNA (16SrRNA and 23SrRNA); assay: Influence of EMA plus visible light on isolated E. coli nucleic acid in vitro (agarose gel electrophoresis), rRNA bands; format: biochemical; details: visible light 500 W halogen bulb 20 min
Procedure: as §1, §2, §3

[3] = system: chromosomal DNA in the nucleic acid existing inside of the living bacteria (E. coli); assay: Influence of EMA plus visible light on nucleic acid inside living E. coli (in vivo; agarose gel electrophoresis), chromosomal DNA band; format: cell-based; details: living E. coli/DH5α suspension, visible light 500 W halogen bulb 20 min
Procedure: (§4) EMA was dissolved in sterile water to prepare 1000 μg/ml EMA solution. The solution was filtrated for sterilization through a 0.2 μm filter (Minisart-plus; manufactured by Sartorius AG). The EMA solution was added so that the final concentration of EMA become 0 (no addition), 0.01, 0.1, 1, 10, and 100 μg/ml with respect to 1 ml of 1.0×10^6CFU/ml living bacterial suspension of E. coli/DH5α strain, followed by leaving standing at 4° C. for 1 hour.
(§5) Subsequently, at a distance of 20 cm from the above living bacterial suspension on ice, the sample was irradiated for 20 minutes with visible light from a 500 W halogen bulb (FLOOD PRF 100V 500 W; Iwasaki Electric Co., Ltd., Tokyo). […]
(§6) Each of the treated solution was divided into two equal volumes and dispensed into two 2 ml micro tubes, respectively. […] The concentration of the purified nucleic acid solution was determined based on the absorbance at UV260 nm (50 μg/ml of the nucleic acid was defined as OD=1, cell length=1 cm:OD260). The purity of the purified nucliec acid was calculated by dividing OD260 with OD280.
(§7) Each of the nucleic acid solutions was prepared at 175 ng/μl and 4 μl of each was then electrophoresed on 0.7% agarose gel. λ-EcoT14 I digest (manufactured by Takara Bio Inc.) was used as a molecular weight marker. […] The resulting image was recorded on the Polaroid film 667. […]

E. coli chromosomal DNA [4] = assay: Electron microscopy of E. coli chromosomal DNA treated with EMA and visible light in vitro; format: biochemical; details: visible light 500 W halogen bulb 20 min
Procedure: Nucleic acid was extracted in a manner similar to Example 1 as described above. The nucleic acid was then dissolved in 9 ml of sterile water. A nucleic acid solution thus prepared was gently loaded on the top of 32 ml sucrose density gradient (16 ml of 10% sucrose solution and 16 ml of 40% sucrose solution were used) and then subjected to ultracentrifugation at 26,000 rpm at 20° C. for 18 hours with a swing rotor (manufactured by Hitachi Koki Co., Ltd.: RPS-27-2). After the centrifugation, a small hole was opened in the bottom of the sucrose density gradient solution and then fractionated every 1 ml.
After that, for each fraction, 3M sodiumacetate solution (pH 5.2) was added so as to be 10% (vol/vol). Then, 2-fold volume of 99.5% ethanol was added. Subsequently, the fraction was subjected to centrifugation at 15,000×g at 4° C. for 10 minutes to recover the pellet. Then, the pellet was washed with 70% ethanol and then dissolved in 100 μl of sterile water.
Among the samples obtained from the respective fraction solutions, a sample only containing a long chromosomal DNA with 48 kbp in agarose electrophoresis was further diluted with sterile water so as to be a DNA concentration of 175 ng/μl. Then 4 μl of each aqueous EMA solution (0, 0.02, 2, and 20 μg/ml) was added to 4 μl of the DNA solution and then left standing at 4° C. for 1 hour under light interception. […]

E. coli/DH5α strain = assay: Antibacterial effect of EMA on living bacteria (number of living bacterial cells); format: cell-based; details: 1.0×10^6 CFU/ml E. coli/DH5α, visible light 500 W halogen bulb 20 min
Procedure: as §4, with “Ethidium monoazide (EMA) was” for “EMA was”, “filtrated” for “filtrated for sterilization”, “μm sterile” for “μm”, “100 μg/ml, respectively” for “100 μg/ml”, “by left” for “by leaving”, “1 hour under light interception.” for “1 hour.”
Subsequently, at a distant of 20 cm from the above living bacterial suspension on ice, the sample was irradiated for 20 minutes with visible light from a 500 W halogen bulb (FLOOD PRF 100V 500 W; Iwasaki Electric Co., Ltd., Tokyo). The sample was subjected to centrifugation at 15,000×g at 4° C. for 10 minutes and the supernatant was then removed to eliminate a product generated by the reaction of water with the visible light irradiation product of EMA (hydroxyamino ethidium), which could not covalently bind to nucleic acid. The pellet was added with an equal amount of physiological saline solution and then serially diluted, followed by 24 hour incubation at 37° C. using an L-plate agar culture medium to determine the number of living bacterial cells.

[5] = system: rRNA (16SrRNA and 23SrRNA) of living bacteria (E. coli); assay: Influence of EMA plus visible light on nucleic acid inside living E. coli (in vivo; agarose gel electrophoresis), rRNA bands; format: cell-based; details: EMA 10 μg/ml; living E. coli/DH5α suspension; visible light 500 W halogen bulb 20 min
Procedure: as §4, §5, §6, §7

CC[n+]1c(-c2ccccc2)c2cc(N=[N+]=[N-])ccc2c2ccc(N)cc21.[Cl-] [EMA, 3-amino-8-azido-5-ethyl-6-phenyl-phenanthridinium chloride]
intensity of the band originated from the chromosomal DNA of approximately 19,329 bps (E. coli chromosomal DNA [1]; EMA 100 ng/ml to 1 μg/ml): gradually decreased | intensity of the band originated from the chromosomal DNA of approximately 19,329 bps (E. coli chromosomal DNA [1]; EMA 10 μg/ml): significantly disappeared | band intensity of rRNA (16SrRNA and 23SrRNA) ([2]; EMA 1 μg/ml): decreased | band intensity of rRNA (16SrRNA and 23SrRNA) ([2]; EMA 10 μg/ml or more): disappeared | intensity of the band originated from the chromosomal DNA of approximately 19,329 bps ([3]; EMA 10 μg/ml): gradually decreased | intensity of the band originated from the chromosomal DNA of approximately 19,329 bps ([3]; EMA 100 μg/ml): significantly disappeared | effect of cleaving the chromosomal DNA (electron microscopy) (E. coli chromosomal DNA [4]; EMA 0 to 0.01 μg/ml): not observed | effect of cleaving the chromosomal DNA (electron microscopy) (E. coli chromosomal DNA [4]; EMA 1 μg/ml or more): caused the cleaving phenomenon of chromosomal DNA | decrease in number of living bacterial cells in comparison with the original number (E. coli/DH5α strain; EMA 10 μg/ml): ~10^2 CFU/ml | decrease in number of living bacterial cells in comparison with the original number (E. coli/DH5α strain; EMA 100 μg/ml): ~10^5 CFU/ml | band intensity of rRNA (16SrRNA and 23SrRNA) [5]: decreased

Source: patent publication US20100170777A1, “AGENT FOR DEGRADING A NUCLEIC ACID AND METHOD OF DEGRADING A NUCLEIC ACID” (Morinaga Milk Industry Co., Ltd., priority 2006, published 2010)
